Earlier results in US10583101B2 (EMCURE PHARMACEUTICALS LIMITED, priority 2016, dated 2020).

For O=NN(CCCl)C(=O)NCCCl [Carmustine, 1,3-bis (2-chloroethyl)-1-nitrosourea], the “solubility in alcohol and lipids” value (alcohol and lipids) is given as “highly soluble in alcohol and lipids” and the solubility in water (water) is given as “poorly soluble in water”.
